Structures are written as SMILES.

Assay [1] concerns the target T1, acid ceramidase (AC) (Homo sapiens, UniProt Q13510).
T1 sequence (Q13510 143-395 limits assumed): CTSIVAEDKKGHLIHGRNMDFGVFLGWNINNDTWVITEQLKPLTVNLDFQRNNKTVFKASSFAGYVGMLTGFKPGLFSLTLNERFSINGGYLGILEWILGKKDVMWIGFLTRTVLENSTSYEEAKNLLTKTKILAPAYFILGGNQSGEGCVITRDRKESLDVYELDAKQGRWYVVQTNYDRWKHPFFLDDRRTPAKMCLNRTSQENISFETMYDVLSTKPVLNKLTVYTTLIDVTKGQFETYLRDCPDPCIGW
T1 sequence (Q13510 22-142 limits assumed): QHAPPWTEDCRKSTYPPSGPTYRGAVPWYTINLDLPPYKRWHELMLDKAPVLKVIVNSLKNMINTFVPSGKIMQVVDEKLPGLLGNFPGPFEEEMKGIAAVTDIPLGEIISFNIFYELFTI
Briefly: Hydrolysis of RBM5-177 by lysates of AC overexpressing cells, UPLC-HRMS. To be noted: lysates from A375/+Dox cells, 30 min. The class given is biochemical. Details: expressed in transfected cells; host or cells: A375/+Dox (overexpressing AC). As to the method: Cells were suspended in the appropriate volume of a 0.25 M saccharose solution with the proteases inhibitors aprotinin (1 mg/ml), leupeptin (1 mg/mml) and PMSF (100 mM). The suspension was submitted to three cycles of a 5 s sonication (probe) at 10 watts/5 s resting on ice. The cell lysate was centrifuged at 600 g for 5 min. The supernatant was collected and protein concentration was determined as specified below.
Cells were seeded at 5 × 10^5 cells/mL into 6 well plates (1 mL/well) and were allowed to adhere for 24 h. Medium was replaced with fresh medium containing RBM5-177, RBM5-019 or RBM2-37 (5 µM final concentration). After 30 min, medium was removed; cells were washed with 400 µL PBS and harvested with 400 µL Trypsin-EDTA and 600 µL of medium. NC recombinant enzyme, […], MEF5 or microsomes from HeLa T-Rex ACER1-TET-ON and HeLa T-Rex […] activity buffer. Cell pellets were resuspended with 100 µL of H2O and mixed with 750 µL of methanol: chloroform, 2:1. Samples were heated at 48°C overnight and next day, 75 µL of 1 M KOH in methanol were added, followed by 2 h incubation at 37°C. Afterwards, the saponification was neutralised with 75 µL of 1 M acetic acid and solvent was removed using a Speed Vac Savant SPD131 DDA (Thermo Scientific). […]

Assay [2] addresses T1, acid ceramidase (AC). Put plainly: AC activity by flow cytometry with RBM5-177/CO-1 in intact cells. On the set-up: expressed in transfected cells; host or cells: A375/+Dox and FD/AC (overexpressing AC); A375/-Dox and A549 (endogenous AC). The format is cell-based. How it is done:
Cells were seeded at 1 × 10^5 cells/mL into 6 well plates (1 mL/well) and were allowed to adhere for 24 h. Medium was replaced with fresh medium containing Soclac (5 µM final concentration) and incubated for 1 h. After this time, the medium was replaced with RBM5-177, RBM5-019 or RBM2-37 (5 µM final concentration) +/- Soclac and incubated for 20 min. In the experiments with DM120, the compound, Soclac and RBM5-177 were incubated together for 4 h. After probes incubation, the medium was replaced with fresh medium containing CO-1 (1 µM final concentration), and cells were incubated for 10 min. Then cells were washed 3 times with DMEM for 5 min at 37 °C, and finally washed with 400 µL PBS and harvested with 400 µL Trypsin-EDTA and 600 µL of medium. Pellets were resuspended with 200 µL of PBS and stained cells were analyzed by using a Guava EasyCyte™ flow cytometer (Merck Millipore, Billerica, MA) measuring green fluorescence (488/525 nm). Data analysis was performed using the Multicycle AV program (Phoenix Flow Systems, San Diego, CA).
(A flow cytometer gives signals particle by particle.)

As to `CCCCCCCCCCCCC/C=C/[C@@H](O)[C@H](CO)NC(=O)CCl` [SOCLAC], at acid ceramidase (AC) [1] (SOCLAC 5 µM, 1 h, then RBM5-177 5 µM), the “inhibition of the formation of RBM5-19 from RBM5-177” value is “totally prevented the formation of RBM5-19 from RBM5-177”. Also, the “effect on number of fluorescent counts” value on acid ceramidase (AC) [2] (A375 cells, SOCLAC 5 µM 1 h pre-incubation (Fig. 5A, 5D)) is “significantly decreased”. Also, the “effect on number of labelled cells” value at acid ceramidase (AC) [2] (A549 cell line, SOCLAC 5 µM 1 h (Fig. 5B, 5E)) is “significantly decreasing the number of labelled cells”; on acid ceramidase (AC) [2] (FD/AC cells, SOCLAC 5 µM 1 h preincubation (Fig. 5C)), “reduced down to FD levels”.

On to `CCCCCCCC(=O)N[C@@H](C)[C@H](O)CCCCCCCCCCCCN=[N+]=[N-]` [RBM5-177, N-((2S,3R)-15-azido-3-hydroxypentadecan-2-yl)octanamide], for which the “RBM5-19 formation (hydrolysis as substrate)” value at acid ceramidase (AC) [1] (RBM5-177 5 µM) is “transformed into the free amine only by AC”. On acid ceramidase (AC) [2] (FD/AC cells versus AC deficient FD cells, RBM5-177 5 µM 4 h, CO-1), the “increase in the number of fluorescent counts over FD” value is reported as 7 fold.
